The values that follow come from PMC4264767, “Discovery of Two β-1,2-Mannoside Phosphorylases Showing Different Chain-Length Specificities from Thermoanaerobacter sp. X-514” (PLoS ONE, 2014).

Molecules are shown by their SMILES.

The target of the assay is T1, Teth514_1788 (Thermoanaerobacter sp. X514, UniProt B0K2C2).
T1 construct: full-length, no signal peptide predicted, C-terminal His6-tag (pET24a) kept, E. coli Rosetta 2 (DE3); theoretical mass 33,997; homodimer
T1 sequence (B0K2C2 1-296): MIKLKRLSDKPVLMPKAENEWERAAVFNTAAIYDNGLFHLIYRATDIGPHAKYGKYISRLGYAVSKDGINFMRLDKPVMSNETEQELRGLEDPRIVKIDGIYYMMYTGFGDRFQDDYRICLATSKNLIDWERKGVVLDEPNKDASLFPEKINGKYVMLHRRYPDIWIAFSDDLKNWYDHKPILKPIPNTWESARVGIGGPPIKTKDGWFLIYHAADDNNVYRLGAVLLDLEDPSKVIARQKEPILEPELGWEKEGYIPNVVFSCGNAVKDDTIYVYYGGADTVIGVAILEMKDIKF
As to the kind of experiment: colorimetric α-Man1P release, sequential Bi Bi fit. Type of assay: biochemical. The conditions noted are these: kinetic constant K iA of substrate A, no inhibition constant; phosphorolysis; Pi 0.10-2.0 mM; 40 mM MES-NaOH pH 6.0; 30°C.

`OC[C@H]1O[C@@H](O[C@@H]2C(O)O[C@H](CO)[C@@H](O)[C@@H]2O)[C@@H](O)[C@@H](O)[C@@H]1O` (stereo partly drawn) [product 1, β-D-mannopyranosyl-(1→2)-D-mannose]: the “K iA” value was 0.63 ± 0.2 mM. Take `OC[C@H]1O[C@@H](O[C@@H]2[C@H](O[C@@H]3C(O)O[C@H](CO)[C@@H](O)[C@@H]3O)O[C@H](CO)[C@@H](O)[C@@H]2O)[C@@H](O)[C@@H](O)[C@@H]1O` (stereo partly drawn) [product 2, β-D-mannopyranosyl-(1→2)-β-D-mannopyranosyl-(1→2)-D-mannose]: the “K iA” value stood at 2.1 ± 0.5 mM.

With `OC[C@H]1O[C@@H](O[C@@H]2[C@H](O[C@@H]3[C@H](O[C@@H]4C(O)O[C@H](CO)[C@@H](O)[C@@H]4O)O[C@H](CO)[C@@H](O)[C@@H]3O)O[C@H](CO)[C@@H](O)[C@@H]2O)[C@@H](O)[C@@H](O)[C@@H]1O` (stereo partly drawn) [product 3, β-D-mannopyranosyl-(1→2)-β-D-mannopyranosyl-(1→2)-β-D-mannopyranosyl-(1→2)-D-mannose], the “K iA” value came out at 1.9 ± 0.6 mM.
